# Source: patent US6620418B1, “Antiseptic/antifungal agent and endermic liniment composition which contains it” (Shiseido Company, Ltd., priority 1999, dated 2003)
# System: Mold, yeast, and bacteria
# Test: The antiseptic effectiveness evaluation test
# Format: cell-based
# Protocol: The Antiseptic Effectiveness Evaluation Test 30 ml of the sample was inoculated with microbe-containing fluid, and the change in the number of microbes was checked with the smearing method. Mold, yeast, and bacteria were used as the inoculation microbes. The antiseptic effectiveness was evaluated based on the changes in the number of the microbes in two weeks, and the obtained results were classified by using the following four step criterion. […] X: No reduction in microbes was observed.
compound,measurement,setting,value
"CCCCC(CC)(CO)CO [2-n-butyl-2-ethyl-1,3-propanediol]",concentration at which an adequate effect on bacteria was confirmed,"1,3-butylene glycol additionally blended into the composition",0.1%
same,"concentration of 2-n-butyl-2-ethyl-1,3-propanediol at which the compositions showed adequate antiseptic effectiveness","lotions of Table 1-2, effect on all the mold, yeast, and bacteria",≥ 0.5%
